Results from Sander's compilation of Henry's law constants.

Tests used:
[1] = Henry solubility constant Hcp at 333 K (mol/(m3 Pa)); conditions: reference: Severit (1997)
[2] = Henry solubility constant Hcp at 283 K (mol/(m3 Pa)); conditions: reference: Heal et al. (1995)
[3] = Henry solubility constant Hcp at 298.15 K (mol/(m3 Pa))
[4] = Henry solubility constant Hcp at 323 K (mol/(m3 Pa)); conditions: reference: Dallos et al. (1983)
[5] = Henry solubility constant Hcp at 353 K (mol/(m3 Pa)); conditions: reference: St-Pierre et al. (2014)
[6] = Henry solubility constant Hcp at 275 K (mol/(m3 Pa)); conditions: reference: Katrib et al. (2001)
[7] = Henry solubility constant Hcp at 290 K (mol/(m3 Pa)); conditions: reference: Disselkamp et al. (1999)
[8] = Henry solubility constant Hcp at 287 K (mol/(m3 Pa)); conditions: reference: Hempel (1901)

For `[Cl][Hg][Cl]` [mercury dichloride], the “Henry solubility constant Hcp at 333 K” value [1] was 1000.

In the case of `Nc1ccccc1` [aminobenzene], the “Henry solubility constant Hcp at 283 K” value [2] is reported as 1.2, the “Henry solubility constant Hcp” value ([3]; reference: Jayasinghe et al. (1992)) is reported as 5 and the “Henry solubility constant Hcp at 323 K” value [4] is reported as 1.1.

For `O=S=O` [sulfur dioxide], the “Henry solubility constant Hcp” value ([3]; reference: Johnstone and Leppla (1934)) was 0.012, the “Henry solubility constant Hcp” value ([3]; reference: Schoenfeld (1855)) was 0.014 and the “Henry solubility constant Hcp at 353 K” value [5] was 0.4.

In the case of `ClBr` [bromine chloride], the “Henry solubility constant Hcp at 275 K” value [6] is reported as under 0.062, the “Henry solubility constant Hcp” value ([3]; reference: Bartlett and Margerum (1999)) is reported as 0.0093 and the “Henry solubility constant Hcp at 290 K” value [7] is reported as 0.015.

In the case of `O=C=S` [carbon oxide sulfide], the “Henry solubility constant Hcp” value ([3]; reference: De Bruyn et al. (1995b)) is reported as 0.00022, the “Henry solubility constant Hcp” value ([3]; reference: Stock and Kuß (1917)) is reported as 0.00024 and the “Henry solubility constant Hcp” value ([3]; reference: Winkler (1906)) is reported as 0.00021. The “Henry solubility constant Hcp” value ([3]; reference: Winkler (1907)) was 0.00021 and the “Henry solubility constant Hcp at 287 K” value [8] was 0.00034.
